In this experiment the test system is HOP-62 multicell spheroids with HUVEC/MSC, viability. Nature of the experiment: Anticancer human tumor HOP-62 cell line growth inhibition [KRAS2].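 For all read-outs here: viability read after a week of compound exposure.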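 For viability, T/C: 100% = DMSO vehicle-treated spheroids.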 Conditions: for viability, T/C: stronger effect = lower value. In a few lines: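 Combination screen of spheroid viability in tumor-cell co-cultures with endothelial (HUVEC) and mesenchymal stem cell stroma. Each agent was tested in half-log dilutions, topping at clinical Cmax or at 10 microM without a known Cmax.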

Setting [1] is: curve of first compound, second compound 0.1 µM.
Where [2] appears, read: curve of first compound, second compound 0.316 µM.
Where [3] appears, read: curve of first compound, second compound 1 µM.
The mark [4] stands for this setting: curve of first compound, second compound 3.16 µM.
[5] abbreviates: second compound 0.1 µM, first compound 0.0316 µM.
Where [6] appears, read: second compound 0.316 µM, first compound 0.0316 µM.
Setting [7] is: second compound 1 µM, first compound 0.0316 µM.
Setting [8] is: second compound 3.16 µM, first compound 0.0316 µM.
Setting [9] is: curve of first compound, second compound 10 µM.
[10] abbreviates: second compound 0.1 µM, first compound 0.1 µM.
[11] abbreviates: second compound 0.1 µM, first compound 0.316 µM.
Setting [12] is: second compound 0.1 µM, first compound 1 µM.
Setting [13] is: second compound 0.1 µM, first compound 3.16 µM.
The mark [14] stands for this setting: second compound 0.1 µM, first compound 10 µM.
Setting [15] is: second compound 0.316 µM, first compound 0.1 µM.
Setting [16] is: second compound 0.316 µM, first compound 0.316 µM.
Setting [17] is: second compound 0.316 µM, first compound 1 µM.
Setting [18] is: second compound 0.316 µM, first compound 3.16 µM.
Setting [19] is: second compound 0.316 µM, first compound 10 µM.
Where [20] appears, read: second compound 1 µM, first compound 0.1 µM.
[21] abbreviates: second compound 1 µM, first compound 0.316 µM.
Setting [22] is: second compound 1 µM, first compound 1 µM.
The mark [23] stands for this setting: second compound 1 µM, first compound 3.16 µM.
Setting [24] is: second compound 1 µM, first compound 10 µM.
Where [25] appears, read: second compound 3.16 µM, first compound 0.1 µM.
Setting [26] is: second compound 3.16 µM, first compound 0.316 µM.
Where [27] appears, read: second compound 3.16 µM, first compound 1 µM.
Setting [28] is: second compound 3.16 µM, first compound 3.16 µM.
Setting [29] is: second compound 3.16 µM, first compound 10 µM.
[30] abbreviates: second compound 10 µM, first compound 0.0316 µM.
[31] abbreviates: second compound 10 µM, first compound 0.1 µM.
Where [32] appears, read: second compound 10 µM, first compound 0.316 µM.
[33] abbreviates: second compound 10 µM, first compound 1 µM.
Setting [34] is: second compound 10 µM, first compound 3.16 µM.
Where [35] appears, read: second compound 10 µM, first compound 10 µM.

A word on the IC50: it is the concentration that inhibits the measured activity by half. One may read the viability, T/C as the ratio of treated to control. Turning to `CC(=O)Nc1cccc(-n2c(=O)n(C3CC3)c(=O)c3c(Nc4ccc(I)cc4F)n(C)c(=O)c(C)c32)c1` + C=CC(=O)N1CCN(c2nc(OCC3CCCN3C)nc3c2CCN(c2cccc4cccc(C)c24)C3)CC1CC#N, the IC50 was 1.49 nM (curve of first compound, second compound 0.0316 µM); 1.01 nM under setting [1]; 0.406 nM under setting [2]; less than 0.1 nM under setting [3]; less than 0.1 nM under setting [4]. Moreover, the viability, T/C reads like this: (second compound 0.0316 µM, first compound 0.0001 µM) 83.2%; (second compound 0.0316 µM, first compound 0.000316 µM) 75%; (second compound 0.0316 µM, first compound 0.001 µM) 56.2%; (second compound 0.0316 µM, first compound 0.00316 µM) 38.9%; (second compound 0.0316 µM, first compound 0.01 µM) 23.4%; (second compound 0.0316 µM, first compound 0.0316 µM) 25.5%. Further, the viability, T/C by setting is: (second compound 0.1 µM, first compound 0.0001 µM) 64.8%; (second compound 0.1 µM, first compound 0.000316 µM) 60.9%; (second compound 0.1 µM, first compound 0.001 µM) 50.5%; (second compound 0.1 µM, first compound 0.00316 µM) 27.4%; (second compound 0.1 µM, first compound 0.01 µM) 19.4%; under setting [5], 24.3%. The viability, T/C is, setting by setting: (second compound 0.316 µM, first compound 0.0001 µM) 52.3%; (second compound 0.316 µM, first compound 0.000316 µM) 53.6%; (second compound 0.316 µM, first compound 0.001 µM) 40%; (second compound 0.316 µM, first compound 0.00316 µM) 18.4%; (second compound 0.316 µM, first compound 0.01 µM) 15.7%; under setting [6], 17.3%. In addition, the viability, T/C is 34.4% (second compound 1 µM, first compound 0.0001 µM); 28.1% (second compound 1 µM, first compound 0.000316 µM); 18% (second compound 1 µM, first compound 0.001 µM); 15% (second compound 1 µM, first compound 0.00316 µM); 12.5% (second compound 1 µM, first compound 0.01 µM); 12.5% under setting [7]. Moreover, the viability, T/C (second compound 3.16 µM, first compound 0.0001 µM) was 18.2%; the viability, T/C (second compound 3.16 µM, first compound 0.000316 µM) was 1.3%; the viability, T/C (second compound 3.16 µM, first compound 0.001 µM) was 9.7%; the viability, T/C (second compound 3.16 µM, first compound 0.00316 µM) was 12.7%; the viability, T/C (second compound 3.16 µM, first compound 0.01 µM) is 1.72%; the viability, T/C under setting [8] was 1.33%.
Regarding `COC(=O)c1ccc2c(C(=Nc3ccc(N(C)C(=O)CN4CCN(C)CC4)cc3)c3ccccc3)c(O)[nH]c2c1`, the viability, T/C runs as follows: (compound 0.0316 µM) 89.8% [middle of 5 runs]; (compound 0.1 µM) 77.7% [middle of 5 runs]; (compound 0.316 µM) 65.8% [middle of 5 runs]; (compound 1 µM) 48.6% [middle of 5 runs]; (compound 3.16 µM) 40.7% [middle of 5 runs]; (compound 10 µM) 15.8% [middle of 5 runs]. In addition, the IC50 (curve of compound) is 1.09 µM [middle of 5 runs].
Take `COc1cc(Nc2ncc3c(n2)-c2ccc(Cl)cc2C(c2c(F)cccc2OC)=NC3)ccc1C(=O)O` + CC1OCC2(CCN(c3cnc(Sc4ccnc(N)c4Cl)c(N)n3)CC2)C1N: the IC50 under setting [1] came to 183 nM; the IC50 under setting [2] is 72.8 nM; the IC50 under setting [3] was less than 31.6 nM; the IC50 under setting [4] was less than 31.6 nM; the IC50 under setting [9] was less than 31.6 nM. Besides, the viability, T/C is, setting by setting: under setting [5], 61.5%; under setting [10], 53.9%; under setting [11], 45.7%; under setting [12], 39%; under setting [13], 26.9%; under setting [14], 20.1%. For the same compound, the viability, T/C is, setting by setting: under setting [6], 56%; under setting [15], 47.8%; under setting [16], 38.5%; under setting [17], 31.3%; under setting [18], 22%; under setting [19], 16.3%. Besides, the viability, T/C runs as follows: under setting [7], 34.6%; under setting [20], 29.7%; under setting [21], 27.1%; under setting [22], 26.1%; under setting [23], 21.1%; under setting [24], 15.4%. The viability, T/C is, setting by setting: under setting [8], 21.9%; under setting [25], 18.9%; under setting [26], 22.2%; under setting [27], 21.7%; under setting [28], 14.7%; under setting [29], 11.4%. In addition, the viability, T/C by setting is: under setting [30], 22.7%; under setting [31], 17.1%; under setting [32], 18.4%; under setting [33], 17.4%; under setting [34], 16.2%; under setting [35], 10.7%.
Regarding `O=C(c1cc(Cc2n[nH]c(=O)c3ccccc23)ccc1F)N1CCN(C(=O)C2CC2)CC1` + CC1OCC2(CCN(c3cnc(Sc4ccnc(N)c4Cl)c(N)n3)CC2)C1N, the concentration for half-maximal inhibition (IC50) under setting [1] was determined as 6460 nM; the IC50 under setting [2] was determined as 5420 nM; the concentration for half-maximal inhibition (IC50) under setting [3] turned out to be 2280 nM; the IC50 under setting [4] is less than 31.6 nM; the half-maximal inhibitory concentration (IC50) under setting [9] was less than 31.6 nM. In addition, the viability, T/C was 90% under setting [5]; 84.3% under setting [10]; 80.8% under setting [11]; 85.4% under setting [12]; 66.8% under setting [13]; 39.8% under setting [14]. In addition, the viability, T/C reads like this: under setting [6], 84.2%; under setting [15], 83.7%; under setting [16], 78.6%; under setting [17], 69.5%; under setting [18], 57.6%; under setting [19], 41.1%. Also, the viability, T/C is 101% under setting [7]; 70.1% under setting [20]; 63.7% under setting [21]; 65.5% under setting [22]; 51.2% under setting [23]; 34.5% under setting [24]. The viability, T/C by setting is: under setting [8], 44.2%; under setting [25], 43%; under setting [26], 40.3%; under setting [27], 44.1%; under setting [28], 37%; under setting [29], 26.1%. Also, the viability, T/C is 37.1% under setting [30]; 40.5% under setting [31]; 36.8% under setting [32]; 43.2% under setting [33]; 32.7% under setting [34]; 28% under setting [35].
As to `Cn1nccc1Nc1nccc(-c2cc3c(s2)C(C)(C)N(CCN2CCOCC2)C3=O)n1`, the viability, T/C is, setting by setting: (compound 0.0316 µM) 98.2% [middle of 5 runs]; (compound 0.1 µM) 103% [middle of 5 runs]; (compound 0.316 µM) 99.5% [middle of 5 runs]; (compound 1 µM) 62.4% [middle of 5 runs]; (compound 3.16 µM) 32.8% [middle of 5 runs]; (compound 10 µM) 30.4% [middle of 5 runs]. For the same compound, the IC50 (curve of compound) is 1.65 µM [middle of 5 runs].

The values are drawn from PubChem BioAssay AID1963858 (Molecular Pharmacology Branch, DTP, NCI, 2024).
